Experiment [1] relates to microfilariae of Dirofilaria immitis. Briefly: Dirofilaria immitis, Microfilaria (DiMF) In vitro Assay. The following applies: 72 h, read-out: DiMF Minimum Effective Dose (MED), approximately 72 hours incubation, microfilariae assessed for survival or paralysis. It is filed as cell-based.
The test system of experiment [2] is 4th stage larvae (L4) of Dirofilaria immitis. As to the kind of experiment: Dirofilaria immitis, L4 Stage (DiL4) In Vitro Assay. It is filed as cell-based. The following applies: Dirofilaria immitis, 72 h, read-out: DiL4 Minimum Effective Dose (MED), approximately 72 hours incubation; L4 larvae assessed for survival or paralysis.

A value given as a limit tells only on which side of the number the result lay.

In the case of `CC(C)C[C@H]1C(=O)O[C@H](Cc2ccc(Cn3nc(C#N)cc3C#N)cc2)C(=O)N(C)[C@@H](CC(C)C)C(=O)O[C@H](C)C(=O)N(C)[C@@H](CC(C)C)C(=O)O[C@H](Cc2ccc(Cn3cc(Br)c(C#N)n3)cc2)C(=O)N(C)[C@@H](CC(C)C)C(=O)O[C@H](C)C(=O)N1C` [Example 1a-1, 1-(4-(((2R,5S,8R,11S,14R,17S,20R,23S)-14-(4-((4-bromo-3-cyano-1H-pyrazol-1-yl)methyl)benzyl)-5,11,17,23-tetraisobutyl-4,8,10,16,20,22-hexamethyl-3,6,9,12,15,18,21,24-octaoxo-1,7,13,19-tetraoxa-4,10,16,22-tetraazacyclotetracosan-2-yl)methyl)benzyl)-1H-pyrazole-3,5-dicarbonitrile], the minimal effective concentration lay in the range of 0.001 to 0.01 µM in experiment [1] and 0.0001 to 0.001 µM in experiment [2].

Turning to `CC(C)C[C@H]1C(=O)O[C@H](Cc2ccc(Cn3nc(C(F)F)cc3C3CC3)cc2)C(=O)N(C)[C@@H](CC(C)C)C(=O)O[C@H](C)C(=O)N(C)[C@@H](CC(C)C)C(=O)O[C@H](Cc2ccc(Cn3nc(C#N)cc3C#N)cc2)C(=O)N(C)[C@@H](CC(C)C)C(=O)O[C@H](C)C(=O)N1C` [Example 1a-7, 1-(4-(((2R,5S,8R,11 S,14R,17S,20R,23S)-14-(4-((5-cyclopropyl-3-(difluoromethyl)-1H-pyrazol-1-yl)methyl)benzyl)-5,11,17,23-tetraisobutyl-4,8,10,16,20,22-hexamethyl-3,6,9,12,15,18,21,24-octaoxo-1,7,13,19-tetraoxa-4,10,16,22-tetraazacyclotetracosan-2-yl)methyl)benzyl)-1H-pyrazole-3,5-dicarbonitrile], the minimal effective concentration in experiment [1] was 0.001 to 0.01 µM; in experiment [2], no more than 0.0001 µM.

Turning to `CC(C)C[C@H]1C(=O)O[C@H](Cc2ccc(Cn3nccc3-c3ccccc3)cc2)C(=O)N(C)[C@@H](CC(C)C)C(=O)O[C@H](C)C(=O)N(C)[C@@H](CC(C)C)C(=O)O[C@H](Cc2ccc(Cn3nc(C#N)cc3C#N)cc2)C(=O)N(C)[C@@H](CC(C)C)C(=O)O[C@H](C)C(=O)N1C` [Example 1a-12, 1-(4-(((2R,5S,8R,11S,14R,17S,20R,23S)-5,11,17,23-tetraisobutyl-4,8,10,16,20,22-hexamethyl-3,6,9,12,15,18,21,24-octaoxo-14-(4-((5-phenyl-1H-pyrazol-1-yl)methyl)benzyl)-1,7,13,19-tetraoxa-4,10,16,22-tetraazacyclotetracosan-2-yl)methyl)benzyl)-1H-pyrazole-3,5-dicarbonitrile], the minimal effective concentration was in the range of 0.01 to 0.1 µM in experiment [1] and 0.0001 to 0.001 µM in experiment [2].

As to `CCOc1cn(Cc2ccc(C[C@H]3OC(=O)[C@H](CC(C)C)N(C)C(=O)[C@@H](C)OC(=O)[C@H](CC(C)C)N(C)C(=O)[C@@H](Cc4ccc(Cn5ncc(OCC)c5C)cc4)OC(=O)[C@H](CC(C)C)N(C)C(=O)[C@@H](C)OC(=O)[C@H](CC(C)C)N(C)C3=O)cc2)nc1C` [Example 1a-38, (3S,6R,9S,12R,15S,18R,21S,24R)-6-[[4-[(4-ethoxy-3-methyl-pyrazol-1-yl)methyl]phenyl]methyl]-18-[[4-[(4-ethoxy-5-methyl-pyrazol-1-yl)methyl]phenyl]methyl]-3,9,15,21-tetraisobutyl-4,10,12,16,22,24-hexamethyl-1,7,13,19-tetraoxa-4,10,16,22-tetrazacyclotetracosane-2,5,8,11,14,17,20,23-octaone], the minimal effective concentration in experiment [1] and in experiment [2] was 0.001 to 0.01 µM throughout.

In the case of `CC(C)C[C@H]1C(=O)O[C@H](Cc2ccc(Cn3cc(OCC4CC4)cn3)cc2)C(=O)N(C)[C@@H](CC(C)C)C(=O)O[C@H](C)C(=O)N(C)[C@@H](CC(C)C)C(=O)O[C@H](Cc2ccc(Cn3cc(OCC4CC4)cn3)cc2)C(=O)N(C)[C@@H](CC(C)C)C(=O)O[C@H](C)C(=O)N1C` [Example 1b-146, (3S,6R,9S,12R,15S,18R,21S,24R)-6,18-bis(4-((4-(cyclopropylmethoxy)-1H-pyrazol-1-yl)methyl)benzyl)-3,9,15,21-tetraisobutyl-4,10,12,16,22,24-hexamethyl-1,7,13,19-tetraoxa-4,10,16,22-tetraazacyclotetracosan-2,5,8,11,14,17,20,23-octaone], in experiment [2], the minimal effective concentration fell in the range of 0.001 to 0.01 µM.

Consider `CC(C)C[C@H]1C(=O)O[C@H](Cc2ccc(Cn3nccc3-c3ccc(Cl)cc3)cc2)C(=O)N(C)[C@@H](CC(C)C)C(=O)O[C@H](C)C(=O)N(C)[C@@H](CC(C)C)C(=O)O[C@H](Cc2ccc(Cn3nccc3-c3ccc(Cl)cc3)cc2)C(=O)N(C)[C@@H](CC(C)C)C(=O)O[C@H](C)C(=O)N1C` [Example 1b-153, (3S,6R,9S,12R,15S,18R,21S,24R)-6,18-bis(4-((5-(4-chlorophenyl)-1H-pyrazol-1-yl)methyl)benzyl)-3,9,15,21-tetraisobutyl-4,10,12,16,22,24-hexamethyl-1,7,13,19-tetraoxa-4,10,16,22-tetraazacyclotetracosan-2,5,8,11,14,17,20,23-octaone], for which, in experiment [2], the minimal effective concentration was 0.001 to 0.01 µM.

In the case of `COc1cc(C)n(Cc2ccc(C[C@H]3OC(=O)[C@H](CC(C)C)N(C)C(=O)[C@@H](C)OC(=O)[C@H](CC(C)C)N(C)C(=O)[C@@H](Cc4ccc(Cn5nc(OC)cc5C)cc4)OC(=O)[C@H](CC(C)C)N(C)C(=O)[C@@H](C)OC(=O)[C@H](CC(C)C)N(C)C3=O)cc2)n1` [Example 1b-168, (3S,6R,9S,12R,15S,18R,21S,24R)-3,9,15,21-tetraisobutyl-6,18-bis(4-((3-methoxy-5-methyl-1H-pyrazol-1-yl)methyl)benzyl)-4,10,12,16,22,24-hexamethyl-1,7,13,19-tetraoxa-4,10,16,22-tetraazacyclotetracosan-2,5,8,11,14,17,20,23-octaone], the minimal effective concentration in experiment [2] fell in the range of 0.001 to 0.01 µM.

On to `CCOc1cc(-c2ccccc2)nn1Cc1ccc(C[C@H]2OC(=O)[C@H](CC(C)C)N(C)C(=O)[C@@H](C)OC(=O)[C@H](CC(C)C)N(C)C(=O)[C@@H](Cc3ccc(Cn4nc(-c5ccccc5)cc4OCC)cc3)OC(=O)[C@H](CC(C)C)N(C)C(=O)[C@@H](C)OC(=O)[C@H](CC(C)C)N(C)C2=O)cc1` [Example 1b-178, (3S,6R,9S,12R,15S,18R,21S,24R)-6,18-bis(4-((5-ethoxy-3-phenyl-1H-pyrazol-1-yl)methyl)benzyl)-3,9,15,21-tetraisobutyl-4,10,12,16,22,24-hexamethyl-1,7,13,19-tetraoxa-4,10,16,22-tetraazacyclotetracosan-2,5,8,11,14,17,20,23-octaone], for which the minimal effective concentration in experiment [2] lay within 0.001 to 0.01 µM.

Regarding `Cc1cc(C#N)nn1Cc1ccc(C[C@H]2OC(=O)[C@H](CC(C)C)N(C)C(=O)[C@@H](C)OC(=O)[C@H](CC(C)C)N(C)C(=O)[C@@H](Cc3ccc(Cn4nc(C#N)cc4C)cc3)OC(=O)[C@H](CC(C)C)N(C)C(=O)[C@@H](C)OC(=O)[C@H](CC(C)C)N(C)C2=O)cc1` [Example 1b-194, 1,1′-(((((2R,5S,8R,11S,14R,17S,20R,23S)-5,11,17,23-tetraisobutyl-4,8,10,16,20,22-hexamethyl-3,6,9,12,15,18,21,24-octaoxo-1,7,13,19-tetraoxa-4,10,16,22-tetraazacyclotetracosane-2,14-diyl)bis(methylene))bis(4,1-phenylene))bis(methylene))bis(5-methyl-1H-pyrazole-3-carbonitrile)], the minimal effective concentration in experiment [2] is 0.0001 to 0.001 µM.

Take `CC(C)C[C@H]1C(=O)O[C@H](Cc2ccc(C(C)(C)n3cc(C4CC4)cn3)cc2)C(=O)N(C)[C@@H](CC(C)C)C(=O)O[C@H](C)C(=O)N(C)[C@@H](CC(C)C)C(=O)O[C@H](Cc2ccc(C(C)(C)n3cc(C4CC4)cn3)cc2)C(=O)N(C)[C@@H](CC(C)C)C(=O)O[C@H](C)C(=O)N1C` [Example 1c-8, (3S,6R,9S,12R,15S,18R,21S,24R)-6,18-bis(4-(2-(4-cyclopropyl-1H-pyrazol-1-yl)propan-2-yl)benzyl)-3,9,15,21-tetraisobutyl-4,10,12,16,22,24-hexamethyl-1,7,13,19-tetraoxa-4,10,16,22-tetraazacyclotetracosan-2,5,8,11,14,17,20,23-octaone]: the minimal effective concentration in experiment [2] is no more than 0.0001 µM.

As to `CC(C)C[C@H]1C(=O)O[C@H](Cc2ccc(Cn3ccnc3C(F)(F)F)cc2)C(=O)N(C)[C@@H](CC(C)C)C(=O)O[C@H](C)C(=O)N(C)[C@@H](CC(C)C)C(=O)O[C@H](Cc2ccc(Cn3ccnc3C(F)(F)F)cc2)C(=O)N(C)[C@@H](CC(C)C)C(=O)O[C@H](C)C(=O)N1C` [Example 6-15, (3S,6R,9S,12R,15S,18R,21S,24R)-3,9,15,21-tetraisobutyl-4,6,10,16,18,22-hexamethyl-12,24-bis(4-((2-(trifluoromethyl)-1H-imidazol-1-yl)methyl)benzyl)-1,7,13,19-tetraoxa-4,10,16,22-tetraazacyclotetracosan-2,5,8,11,14,17,20,23-octaone], the minimal effective concentration in experiment [2] is 0.0001 to 0.001 µM.

As for `CC(C)C[C@H]1C(=O)O[C@H](Cc2ccc(CN3CCOc4ccncc43)cc2)C(=O)N(C)[C@@H](CC(C)C)C(=O)O[C@H](C)C(=O)N(C)[C@@H](CC(C)C)C(=O)O[C@H](Cc2ccc(CN3CCOc4ccncc43)cc2)C(=O)N(C)[C@@H](CC(C)C)C(=O)O[C@H](C)C(=O)N1C` [Example 9-63, (3S,6R,9S,12R,15S,18R,21S,24R)-6,18-bis[[4-(2,3-dihydropyrido[4,3-b][1,4]oxazin-4-ylmethyl)phenyl]methyl]-3,9,15,21-tetraisobutyl-4,10,12,16,22,24-hexamethyl-1,7,13,19-tetraoxa-4,10,16,22-tetrazacyclotetracosane-2,5,8,11,14,17,20,23-octaone], the minimal effective concentration in experiment [2] lay in the range of 0.001 to 0.01 µM.

For the origin of these results see patent US11331369B2, “Endoparasitic depsipeptides” (Zoetis Services LLC, priority 2017, dated 2022).
